The values below come from DBAASP.

≈ marks a conversion by molar mass, not a printed value. Where “and” joins values, the source holds several entries; their conditions need not be identical. Equal values may be shown once.

Common to all, as to test: ≥ marks a high value that may be exact or a test limit, other limits are often not marked, values filed in µg/mL are converted to µM
The subject of test [1] is Bacillus megaterium Bm11.
Test [2] relates to Escherichia coli ML-35.
Test [3] concerns Pseudomonas aeruginosa ATCC 27853.
The subject of test [4] is Salmonella enterica subsp. enterica serovar Typhimurium ATCC 14028.
Test [5] relates to Staphylococcus aureus 710A.
Test [6] concerns Cronobacter muytjensii ATCC 51329.
The subject of test [7] is Cronobacter sakazakii ATCC BAA-894.
Test [8] relates to Cronobacter sakazakii DPC 6440.
Test [9] concerns Cronobacter sakazakii DSM 4485.
For test [10], the system named is Escherichia coli NCIMB 11843.
Test [11] relates to Klebsiella pneumoniae NCIMB 13218.
Test [12] has as its system Pseudomonas fluorescens NCIMB 9046.
Test [13] relates to Salmonella enterica subsp. enterica serovar Typhimurium LT2.
Test [14] deals with Staphylococcus aureus NCTC 8325-4.
Test [15] concerns Staphylococcus aureus Newman.
Test [16] relates to Staphylococcus aureus RF122.
The subject of test [17] is Staphylococcus aureus RN4220.
Test [18] relates to Staphylococcus aureus SA113.
The test system of test [19] is Candida albicans CGMCC 2.2086.
For test [20], the system named is Candida parapsilosis CGMCC 2.3989.
The test system of test [21] is Candida tropicalis CGMCC 2.1975.
The subject of test [22] is Escherichia coli 078.
The test system of test [23] is Escherichia coli 987P.
Test [24] relates to Escherichia coli ATCC 25922.
Test [25] deals with Escherichia coli K88.
Test [26] has as its system Escherichia coli K99.
For test [27], the system named is Escherichia coli UB1005.
Test [28] relates to Lacticaseibacillus rhamnosus 7469.
In test [29] the test system is Lactiplantibacillus plantarum 8014.
The test system of test [30] is Pseudomonas aeruginosa PAO1.
The test system of test [31] is Salmonella enterica subsp. enterica serovar Typhimurium C77-31.
Test [32] concerns Staphylococcus aureus ATCC 25923.
The test system of test [33] is Staphylococcus aureus ATCC 29213.
The test system of test [34] is Staphylococcus epidermidis ATCC 12228.
Test [35] relates to Pseudomonas aeruginosa H374.
For test [36], the system named is Pseudomonas aeruginosa H547.
Test [37] concerns Pseudomonas aeruginosa H744.
Test [38] deals with Pseudomonas aeruginosa K799.
The test system of test [39] is Pseudomonas aeruginosa Z61.
Test [40] concerns Salmonella enterica subsp. enterica serovar Typhimurium ATCC 14028s.
In test [41] the test system is Burkholderia cepacia ATCC 25416.

Broadly, the MIC is the lowest concentration that inhibits growth of the organism. The low end stands for a more susceptible organism, the high end for a less susceptible organism. `CC[C@H](C)[C@H](NC(=O)[C@H](CCCCN)NC(=O)[C@H](CCCCN)NC(=O)[C@H](CC(C)C)NC(=O)[C@H](CC(C)C)NC(=O)CN)C(=O)N[C@@H](C)C(=O)N[C@@H](CCCCN)C(=O)N[C@@H](CCCCN)C(=O)N[C@@H](C)C(=O)N[C@@H](CCCCN)C(=O)N[C@@H](CCCCN)C(=O)N[C@@H](C)C(=O)NCC(=O)N[C@@H](CCCCN)C(=O)N[C@@H](CCCCN)C(=O)N[C@@H](CC(C)C)C(=O)NCC(=O)N[C@@H](Cc1ccc(O)cc1)C(N)=O` [GLLKKIAKKAKKAGKKLGY]: the MIC is not below 32 µM in test [1]; 4 µM (≈ 8.17 µg/mL) in [2]; 8 µM (≈ 16.3 µg/mL) in test [3]; more than 32 µM in test [4]; not below 32 µM in test [5].

For the compound `CC[C@H](C)[C@H](NC(=O)[C@H](CCCCN)NC(=O)[C@H](CCCCN)NC(=O)[C@H](CC(C)C)NC(=O)[C@H](CC(C)C)NC(=O)CN)C(=O)NCC(=O)N[C@@H](CCCCN)C(=O)N[C@@H](CCCCN)C(=O)N[C@@H](C)C(=O)N[C@@H](CCCCN)C(=O)N[C@@H](CCCCN)C(=O)N[C@@H](C)C(=O)N[C@@H](CC(C)C)C(=O)N[C@@H](CCCCN)C(=O)N[C@@H](CCCCN)C(=O)N[C@@H](CC(C)C)C(=O)NCC(=O)N[C@@H](Cc1ccc(O)cc1)C(N)=O` [GLLKKIGKKAKKALKKLGY], the MIC in [1] is 2 µM (≈ 4.17 µg/mL); in [2], 0.5 µM (≈ 1.04 µg/mL); in [3], 0.5 µM (≈ 1.04 µg/mL); in [4], 2 µM (≈ 4.17 µg/mL); in [5], 2 µM (≈ 4.17 µg/mL).

For the compound `CC[C@H](C)[C@H](N)C(=O)N[C@@H](C)C(=O)N[C@@H](Cc1cnc[nH]1)C(=O)N[C@@H](CCC(N)=O)C(=O)NCC(=O)N[C@@H](CC(C)C)C(=O)N1CCC[C@H]1C(=O)N[C@@H](CCC(N)=O)C(=O)N[C@@H](CCC(=O)O)C(=O)O` [IAHQGLPQE], the MIC in test [6] was not below 2500 µM; in test [7], not below 2500 µM; in test [8], not below 312 µM; in [9], not below 2500 µM; in test [10] it was not below 1250 µM; in test [11], not below 1250 µM. Further, the MIC in test [12], in test [13], in test [14], in test [15], in [16] and in test [17] was not below 1250 µM throughout. Further, the minimum inhibitory concentration (MIC) in [18] is not below 1250 µM.

Consider `CC[C@H](C)[C@H](N)C(=O)N[C@@H](Cc1cnc[nH]1)C(=O)N[C@@H](Cc1cnc[nH]1)C(=O)N[C@H](C(=O)N[C@@H](Cc1cnc[nH]1)C(=O)N[C@@H](Cc1cnc[nH]1)C(=O)N[C@@H](Cc1cnc[nH]1)C(=O)N[C@H](C(=O)N[C@@H](Cc1cnc[nH]1)C(=O)N[C@@H](Cc1cnc[nH]1)C(=O)N[C@H](C(=O)N[C@@H](Cc1cnc[nH]1)C(=O)N[C@@H](Cc1cnc[nH]1)C(=O)N[C@@H](Cc1cnc[nH]1)C(N)=O)[C@@H](C)CC)[C@@H](C)CC)[C@@H](C)CC` [IHHIHHHIHHIHHH], for which the MIC in [19] is 16 µM (≈ 29.5 µg/mL); in [20] it was 2 µM (≈ 3.68 µg/mL); in [21], 1 µM (≈ 1.84 µg/mL); in [22], not below 64 µM; in [23], not below 64 µM; in test [24], 64 µM and > 32 µM. The MIC in test [25] is not below 64 µM; in test [26], not below 64 µM; in [27] it was not below 64 µM; in [28] it was not below 64 µM; in [29], not below 64 µM; in test [30], 64 µM (≈ 118 µg/mL). Moreover, the MIC in test [4] was more than 64 µM; in test [31], not below 64 µM; in [32], more than 64 µM; in test [33], more than 64 µM; in [34] it was more than 64 µM.

On to `CC(C)[C@H](NC(=O)[C@H](CO)NC(=O)[C@H](CC(N)=O)NC(=O)[C@H](CC(=O)O)NC(=O)[C@H](Cc1ccccc1)NC(=O)[C@H](CO)NC(=O)CNC(=O)[C@@H](NC(=O)[C@H](CCC(N)=O)NC(=O)[C@H](CCCCN)NC(=O)[C@H](Cc1ccccc1)NC(=O)[C@H](Cc1ccccc1)NC(=O)[C@H](CO)NC(=O)[C@H](CCCCN)NC(=O)[C@H](CCCN=C(N)N)NC(=O)[C@H](Cc1c[nH]c2ccccc12)NC(=O)[C@H](CCCCN)NC(=O)[C@@H](N)CCCCN)C(C)C)C(=O)O` [KKWRKSFFKQVGSFDNSV], for which the MIC in test [27], in test [35], in test [36], in test [37], in test [38] and in test [39] was 29.2 µM (≈ 64 µg/mL) each time. For the same compound, the MIC in test [40] amounted to 29.2 µM (≈ 64 µg/mL).

As to `CC[C@H](C)[C@H](NC(=O)CNC(=O)[C@@H](NC(=O)[C@H](CCCCN)NC(=O)[C@H](CCCCN)NC(=O)[C@H](Cc1ccccc1)NC(=O)[C@H](CC(C)C)NC(=O)[C@H](CCCCN)NC(=O)[C@H](Cc1c[nH]c2ccccc12)NC(=O)[C@@H](N)CCCCN)[C@@H](C)CC)C(=O)NCC(=O)N[C@@H](C)C(=O)N[C@H](C(=O)N[C@@H](CC(C)C)C(=O)N[C@@H](CCCCN)C(=O)N[C@H](C(=O)N[C@@H](CC(C)C)C(=O)N[C@H](C(=O)N[C@H](C(=O)NCC(=O)N[C@@H](CC(C)C)C(=O)N1CCC[C@H]1C(=O)N[C@@H](C)C(=O)N[C@@H](CC(C)C)C(=O)N[C@@H](CCCCN)C(=O)N[C@@H](CC(C)C)C(=O)N[C@H](C(=O)N[C@@H](CC(C)C)C(=O)N[C@@H](CCCCN)C(=O)O)[C@@H](C)O)[C@@H](C)O)[C@@H](C)O)C(C)C)C(C)C` [KWKLFKKIGIGAVLKVLTTGLPALKLTLK], the MIC in test [41] stood at 20.1 µM (≈ 64 µg/mL); in [27] it was 0.944 µM (≈ 3 µg/mL); in test [36], 1.26 µM (≈ 4 µg/mL); in test [37], 1.26 µM (≈ 4 µg/mL); in test [38], 1.26 µM (≈ 4 µg/mL); in [39] it was 0.944 µM (≈ 3 µg/mL). In test [40], this compound showed an MIC of 0.944 µM (≈ 3 µg/mL).
